Some results are limits rather than exact numbers.

This test has as its target T1, hFXR (Homo sapiens, UniProt Q96RI1).
T1 construct: expressed in transfected cells; host or cells: CV-1 cells
T1 sequence (Q96RI1 1-486): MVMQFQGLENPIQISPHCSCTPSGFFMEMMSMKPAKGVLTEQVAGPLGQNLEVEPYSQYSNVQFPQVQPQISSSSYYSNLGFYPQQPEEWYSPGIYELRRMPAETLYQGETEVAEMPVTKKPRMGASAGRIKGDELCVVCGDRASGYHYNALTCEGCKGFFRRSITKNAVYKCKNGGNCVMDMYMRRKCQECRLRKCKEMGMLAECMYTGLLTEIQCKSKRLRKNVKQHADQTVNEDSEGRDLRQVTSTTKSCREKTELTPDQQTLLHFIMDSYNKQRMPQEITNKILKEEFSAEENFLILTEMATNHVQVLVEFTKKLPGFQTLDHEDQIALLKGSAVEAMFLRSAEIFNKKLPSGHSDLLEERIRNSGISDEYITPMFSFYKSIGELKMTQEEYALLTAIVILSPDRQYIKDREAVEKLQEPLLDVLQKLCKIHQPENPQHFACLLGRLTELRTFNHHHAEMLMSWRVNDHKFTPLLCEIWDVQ
T1 sequence (P19793 1-462 partner): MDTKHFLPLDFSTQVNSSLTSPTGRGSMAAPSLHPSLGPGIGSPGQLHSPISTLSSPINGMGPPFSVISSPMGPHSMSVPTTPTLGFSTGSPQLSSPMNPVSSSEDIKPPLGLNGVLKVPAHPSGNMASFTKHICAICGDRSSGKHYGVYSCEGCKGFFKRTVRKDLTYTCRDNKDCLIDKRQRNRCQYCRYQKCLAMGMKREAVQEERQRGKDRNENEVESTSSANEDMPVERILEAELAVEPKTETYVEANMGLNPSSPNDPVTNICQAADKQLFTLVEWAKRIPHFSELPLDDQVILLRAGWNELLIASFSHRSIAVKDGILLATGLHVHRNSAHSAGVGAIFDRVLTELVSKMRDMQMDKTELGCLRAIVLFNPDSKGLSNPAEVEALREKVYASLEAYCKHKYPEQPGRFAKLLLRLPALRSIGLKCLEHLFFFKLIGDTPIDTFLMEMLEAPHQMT
As to the kind of experiment: In Vitro FXR Assay (TK): hFXR/hRXR TK-ECRE-luc reporter in transfected CV-1 cells. Conditions: CV-1 cells transfected with hFXR, hRXR, 18 hrs incubation, luminescence, maximum efficacy <25% of Fexarmine control also classified as ‘+’. Type of test: cell-based. Here is the method: Example B-1: In Vitro FXR Assay (TK)
CV-1 cells were seeded at a density of 2,000,000 cells in a T175 flask with DMEM+10% charcoal double-stripped FBS and incubated at 37° C. in 5% CO2 for 18 h (O/N).
After 18 h of incubation, the medium in the T175 flask was changed with fresh DMEM+10% charcoal super-stripped serum. In a polypropylene tube, 2500 μL OptiMEM (Life Technologies, Cat #31985-062) was combined with expression plasmids for hFXR, hRXR, TK-ECRE-luc and pCMX-YFP. The tube was then briefly vortexed and incubated at room temperature for 5 minutes. Transfection reagent (X-tremeGENE HP from Roche, Cat #06 366 236 001) was added to the OptiMEM/plasmid mixture vortexed and incubated at room temperature for 20 minutes. Following incubation, the transfection reagent/DNA mixture complex was added to cells in the T175 flask and the cells were incubated at 37° C. in 5% CO2 for 18 h (0/N).
Compounds were serially diluted in DMSO and added to transfected CV-1 cells. The cells were then incubated for 18 hrs. The next day cells were lysed and examined for luminescence.
What is called EC50 is the concentration at which the effect is half-maximal. A higher EC50 goes with weaker potency. The compound `COc1ccc([C@H]2CC[C@H](CN(c3cccc(-c4cc(C)on4)c3)C(=O)[C@H]3CC[C@H](O)CC3)CC2)cc1C` [Compound 9.08, trans-4-Hydroxy-N-((trans-4-(4-methoxy-3-methylphenyl)cyclohexyl)methyl)-N-(3-(5-methylisoxazol-3-yl)phenyl)cyclohexanecarboxamide] returned an EC50 of at most 500 nM.
As for `COc1ccc([C@H]2CC[C@H](CN(c3cccc(-n4cc(C)nn4)c3)C(=O)[C@H]3CC[C@H](O)CC3)CC2)cc1C` [Compound 9.09, trans-4-Hydroxy-N-((trans-4-(4-methoxy-3-methylphenyl)cyclohexyl)methyl)-N-(3-(4-methyl-1H-1,2,3-triazol-1-yl)phenyl)cyclohexanecarboxamide], the figure is at least 1000 nM; as for `COc1ccc([C@H]2CC[C@H](CN(c3cccc(-n4ncc(C)n4)c3)C(=O)[C@H]3CC[C@H](O)CC3)CC2)cc1C` [Compound 9.10, trans-4-Hydroxy-N-((trans-4-(4-methoxy-3-methylphenyl)cyclohexyl)methyl)-N-(3-(4-methyl-2H-1,2,3-triazol-2-yl)phenyl)cyclohexanecarboxamide], at least 1000 nM.
Regarding `COc1ccc([C@H]2CC[C@H](CN(c3cccc(-c4noc(C)n4)c3)C(=O)[C@H]3CC[C@H](O)CC3)CC2)cc1C` [Compound 9.11, trans-4-Hydroxy-N-((trans-4-(4-methoxy-3-methylphenyl)cyclohexyl)methyl)-N-(3-(5-methyl-1,2,4-oxadiazol-3-yl)phenyl)cyclohexanecarboxamide], the EC50 lay in the range of 500 to 1000 nM.
`COc1ccc([C@H]2CC[C@H](CN(c3cccc(-c4cnc(C5CC5)o4)c3)C(=O)[C@H]3CC[C@H](O)CC3)CC2)cc1C` [Compound 9.12, trans-N-(3-(2-Cyclopropyloxazol-5-yl)phenyl)-4-hydroxy-N-((trans-4-(4-methoxy-3-methylphenyl)cyclohexyl)methyl) cyclohexanecarboxamide] yielded an EC50 of at most 500 nM.
`COc1ccc([C@H]2CC[C@H](CN(c3cccc(-c4cc(C5CC5)no4)c3)C(=O)[C@H]3CC[C@H](O)CC3)CC2)cc1C` [Compound 9.13, trans-N-(3-(3-cyclopropylisoxazol-5-yl)phenyl)-4-hydroxy-N-((trans-4-(4-methoxy-3-methylphenyl)cyclohexyl)methyl) cyclohexanecarboxamide] registered a 50% effective concentration (EC50) of at most 500 nM.
Compound `COc1ccc([C@H]2CC[C@H](CN(c3cccc(-c4cc(C5CC5)on4)c3)C(=O)[C@H]3CC[C@H](O)CC3)CC2)cc1C` [Compound 9.14, trans-N-(3-(5-Cyclopropylisoxazol-3-yl)phenyl)-4-hydroxy-N-((trans-4-(4-methoxy-3-methylphenyl)cyclohexyl)methyl) cyclohexanecarboxamide] registered an EC50 of at most 500 nM.
As for `COc1ccc([C@H]2CC[C@H](CN(c3cccc(-c4coc(C5CC5)n4)c3)C(=O)[C@H]3CC[C@H](O)CC3)CC2)cc1C` [Compound 9.15], the figure is at most 500 nM; as for `COc1ccc(C23CCC(CN(c4cccc(-c5cc(C6CC6)ns5)c4)C(=O)[C@H]4CC[C@H](O)CC4)(CC2)CC3)cc1C` [Compound 10.01, trans-N-(3-(3-Cyclopropylisothiazol-5-yl)phenyl)-4-hydroxy-N-((4-(4-methoxy-3-methylphenyl)bicyclo[2.2.2]octan-1-yl)methyl)cyclohexanecarboxamide], at most 500 nM; as for `CN(C)c1ccc([C@H]2CC[C@H](CN(c3cccc(-c4coc(C5CC5)n4)c3)C(=O)[C@H]3CC[C@H](O)CC3)CC2)cn1` [Compound 10.02, trans-N-(3-(2-Cyclopropyloxazol-4-yl)phenyl)-N-((trans-4-(6-(dimethylamino)pyridine-3-yl)cyclohexyl)methyl)-4-hydroxycyclohexanecarboxamide], at most 500 nM.
As for `CN(C)c1ccc(C23CCC(CN(c4cccc(-c5coc(C6CC6)n5)c4)C(=O)[C@H]4CC[C@H](O)CC4)(CC2)CC3)cn1` [Compound 10.03, trans-N-(3-(2-Cyclopropyloxazol-4-yl)phenyl)-N-((4-(6-(dimethylamino)pyridine-3-yl)bicyclo[2.2.2]octan-1-yl)methyl)-4-hydroxycyclohexanecarboxamide], the figure is at most 500 nM.
In the case of `COc1ccc([C@H]2CC[C@H](CN(c3cccc(-c4coc(C(C)C)n4)c3)C(=O)[C@H]3CC[C@H](O)CC3)CC2)cc1C` [Compound 10.04, trans-4-Hydroxy-N-(3-(2-isopropyloxazol-4-yl)phenyl)-N-((trans-4-(4-methoxy-3-methylphenyl)cyclohexyl)methyl) cyclohexanecarboxamide] it was at most 500 nM; in that of `COc1ccc([C@H]2CC[C@H](CN(c3cccc(-c4coc(C(C)C)n4)c3)C(=O)[C@H]3CC[C@H](O)CC3)CC2)nc1C` [Compound 10.05, trans-4-Hydroxy-N-(3-(2-isopropyloxazol-4-yl)phenyl)-N-((trans-4-(5-methoxy-6-methylpyridin-2-yl)cyclohexyl)methyl) cyclohexanecarboxamide], at most 500 nM.
On to `COc1ccc([C@H]2CC[C@H](CN(c3cccc(-c4coc(C5CC5)n4)c3)C(=O)[C@H]3CC[C@H](O)CC3)CC2)nc1C` [Compound 10.06, trans-N-(3-(2-Cyclopropyloxazol-4-yl)phenyl)-4-hydroxy-N-((trans-4-(5-methoxy-6-methylpyridin-2-yl)cyclohexyl)methyl) cyclohexanecarboxamide], for which the EC50 was at most 500 nM.
Compound `COc1ccc([C@H]2CC[C@H](CN(c3cc(-c4coc(C5CC5)n4)ccn3)C(=O)[C@H]3CC[C@H](O)CC3)CC2)cc1C` [Compound 10.07, trans-N-(4-(2-Cyclopropyloxazol-4-yl)pyridine-2-yl)-4-hydroxy-N-((trans-4-(4-methoxy-3-methylphenyl)cyclohexyl)methyl) cyclohexanecarboxamide] had an EC50 of at most 500 nM.
Turning to `COc1ccc([C@H]2CC[C@H](CN(c3cccc(-c4cc(C5CC5)ns4)c3)C(=O)[C@H]3CC[C@H](O)CC3)CC2)nc1C` [Compound 10.08, trans-N-(3-(3-Cyclopropylisothiazol-5-yl)phenyl)-4-hydroxy-N-((trans-4-(5-methoxy-6-methylpyridin-2-yl)cyclohexyl)methyl) cyclohexanecarboxamide], the EC50 is at most 500 nM.
`COc1ccc([C@H]2CC[C@H](CN(c3cc(-c4coc(C5CC5)n4)ccn3)C(=O)[C@H]3CC[C@H](O)CC3)CC2)nc1C` [Compound 10.09, trans-N-(4-(2-Cyclopropyloxazol-4-yl)pyridine-2-yl)-4-hydroxy-N-((trans-4-(5-methoxy-6-methylpyridin-2-yl)cyclohexyl)methyl) cyclohexanecarboxamide] displayed an EC50 of at most 500 nM.
`COc1ccc([C@H]2CC[C@@H](CN(c3cccc(-c4coc(C5CC5)n4)c3)C(=O)[C@H]3CC[C@H](O)CC3)CC2)nc1C` [Compound 10.10, trans-N-(3-(2-Cyclopropyloxazol-4-yl)phenyl)-4-hydroxy-N-((cis-4-(5-methoxy-6-methylpyridin-2-yl)cyclohexyl)methyl) cyclohexanecarboxamide] showed an EC50 of at least 1000 nM.
With `COc1ccc([C@H]2CC[C@H](CN(c3cccc(-c4coc(C5CC5)n4)c3)C(=O)[C@H]3CC[C@H](O)CC3)CC2)cc1C#N` [Compound 10.11, trans-N-((trans-4-(3-Cyano-4-methoxyphenyl)cyclohexyl)methyl)-N-(3-(2-cyclopropyloxazol-4-yl)phenyl)-4-hydroxycyclohexanecarboxamide], the EC50 is at most 500 nM.
As for `COc1ccc([C@H]2CC[C@H](CN(c3cc(-c4coc(C5CC5)n4)ccn3)C(=O)[C@H]3CC[C@H](O)CC3)CC2)cc1C#N` [Compound 10.12, trans-N-((trans-4-(3-Cyano-4-methoxyphenyl)cyclohexyl)methyl)-N-(4-(2-cyclopropyloxazol-4-yl)pyridine-2-yl)-4-hydroxycyclohexanecarboxamide], the EC50 was at most 500 nM.

These data come from patent publication US20200131129A1, “FARNESOID X RECEPTOR AGONISTS AND USES THEREOF” (Metacrine, Inc., priority 2017, published 2020).
